In article PMC6220787 (Clinical Pharmacology in Drug Development, 2018):
Where two headings read alike, the source gives them in different places.

Assays:
[1] = healthy subjects, 412 μmol of CGA in 200 mL of coffee; cited from earlier work
[2] = Pharmacokinetics of chlorogenic acids; assay type: in vivo, human; details: for AUC0–4 h / tmax: analyte in blood after product 1, oral, healthy male subjects; for AUC0–4 h: mean (SD); for tmax: median (min, max)
[3] = 60 mg of caffeine, single oral dose, healthy male subjects
[4] = assay type: in vivo, human
[5] = cited from earlier work
[6] = analytical recovery test in plasma; cited from earlier work
[7] = after product 1, relative to 4‐CQA
[8] = after product 1, relative to 5‐CQA

Q: Which tmax in plasma [1] does the source give for COc1cc(CCC(=O)O)ccc1O [dihydroferulic acid] here?
A: 5.2 h

Q: Which results are given for O=C(/C=C/c1ccc(O)c(O)c1)O[C@H]1[C@H](O)C[C@](O)(C(=O)O)C[C@H]1O [4‐CQA, 4‐O‐caffeoylquinic acid]?
A: AUC0–4 h [2]: 16.1 (9.80) ng·h/mL; tmax [2]: 1.00 (0.75, 4.00) h

Q: For Cn1c(=O)c2c(ncn2C)n(C)c1=O [Product 2, caffeine], which adverse events [3] is on record?
A: no adverse events

Q: What about the “GMR (90%CI) of AUC0–4 h of caffeine” value ([4]; geometric least‐squares mean ratio, product 1 to product 2) of the same molecule?
A: 98.33%

Q: And the AUC(0-t) ([4]; male, human, serum, oral, 60 mg)?
A: 5600 ng·h/mL

Q: What about the Cmax ([4]; male, human, serum, po, 60 mg) of the same molecule?
A: 2090 ng/mL

Q: What about the tmax ([4]; male, human, serum, po, 60 mg) of the same molecule?
A: 0.63 h

Q: Which “caffeine half‐life” value ([5]; adult men, dose of 4 mg/kg) does the source give for Cn1c(=O)c2c(ncn2C)n(C)c1=O [caffeine] here?
A: 2.5 to 4.5 h

Q: And the “mean half‐life of caffeine in plasma” value ([5]; healthy individuals)?
A: about 5 hours

Q: What about the “known half‐life of caffeine” value ([5]; stated as known) of the same molecule?
A: ~5 h

Q: And the “known tmax of caffeine” value ([5]; stated as known)?
A: approximately 60 minutes

Q: Which results are given for O=C(/C=C/c1ccc(O)c(O)c1)O[C@@H]1C[C@](O)(C(=O)O)C[C@@H](O)[C@H]1O [5‐CQA, 5‐O‐caffeoylquinic acid]?
A: hydrolyzed into caffeic acid [6]: ~7%; AUC0–4 h [2]: 15.7 (10.4) ng·h/mL; tmax [2]: 1.50 (0.75, 2.50) h

Q: With O=C(/C=C/c1ccc(O)c(O)c1)O[C@@H]1C[C@](O)(C(=O)O)C[C@@H](O)[C@H]1O [3‐CQA, 3‐O‐caffeoylquinic acid] as the molecule, how does the “AUC0–4 h greater than that of 4‐CQA” value [2, 7] read?
A: ~41%

Q: What about the “concentration (Cmax) greater than that of 4‐CQA” value [2, 7] of the same molecule?
A: 60%

Q: And the “AUC0–4 h greater than that of 5‐CQA” value [2, 8]?
A: 42.5%

Q: And the “concentration (Cmax) greater than that of 5‐CQA” value [2, 8]?
A: 58%
